In ChEMBL document CHEMBL5244214, “An update on small molecule strategies targeting leishmaniasis” (Eur J Med Chem, 2018):

Key:
Leishmania major [1] = experiment: Antileishmanial activity against Leishmania major MRHO/IR/75/E promastigotes assessed as parasite growth inhibition incubated for 24 hrs by MTT assay; format: functional, organism-based
[2] = Cytotoxicity against mouse peritoneal macrophages assessed as reduction in cell viability incubated for 24 hrs by MTT assay; format: toxicity, cell-based, Peritoneal macrophage
Leishmania donovani = experiment: Antileishmanial activity against Leishmania donovani promastigotes assessed as parasite growth inhibition; format: functional, organism-based
Leishmania major [3] = experiment: Antileishmanial activity against Leishmania major assessed as inhibition of parasite growth; format: functional, organism-based
Leishmania major [4] = experiment: Antileishmanial activity against Leishmania major promastigotes assessed as parasite growth inhibition at 100 uM incubated for 72 hrs by MTT assay; format: functional; conditions: read-out: GI
Leishmania major [5] = experiment: Antileishmanial activity against Leishmania major promastigotes assessed as parasite growth inhibition at 10 uM incubated for 72 hrs by MTT assay; format: functional; conditions: read-out: GI
Leishmania major [6] = experiment: Antileishmanial activity against Leishmania major promastigotes assessed as parasite growth inhibition at 1 uM incubated for 72 hrs by MTT assay; format: functional; conditions: read-out: GI
Leishmania major [7] = experiment: Antileishmanial activity against Leishmania major promastigotes assessed as parasite growth inhibition at 0.1 uM incubated for 72 hrs by MTT assay; format: functional; conditions: read-out: GI
Leishmania aethiopica [8] = experiment: Antileishmanial activity against Leishmania aethiopica promastigotes assessed as parasite growth inhibition incubated for 24 hrs by alamar blue staining based analysis; format: functional, organism-based
Leishmania aethiopica [9] = experiment: Antileishmanial activity against Leishmania aethiopica axenic amastigotes assessed as parasite growth inhibition incubated for 72 hrs by resazurin staining based analysis; format: functional, organism-based

## COc1ccc(CCNC(=O)CSc2nnc(-c3ccc([N+](=O)[O-])o3)s2)cc1OC
Leishmania major [1]
  IC50: 19.1 µM
[2]
  IC50 at 24 h: 56 µM

## Cc1cccc2cc(C(c3c(O)c4ccccc4oc3=O)N3CCN(C)CC3)c(Cl)nc12 (stereo unspecified)
Leishmania donovani
  IC50: 6.9 µM

## COCCCNc1nnc(-c2ccc([N+](=O)[O-])s2)s1
Leishmania major [3]
  IC50: 3 µM

## COc1ccc(NC(=O)CCC(=O)O)c([N+](=O)[O-])c1
Leishmania major [4]
  inhibition of growth at 100 µM: 56.8%
Leishmania major [5]
  inhibition of growth at 10 µM: 50.4%
Leishmania major [6]
  inhibition of growth at 1 µM: 45.5%
Leishmania major [7]
  inhibition of growth at 0.1 µM: 59.3%

## C[C@@H]1[C@H](O)[C@@H](C)/C=C/C=C/C=C/C=C/C=C/C=C/C=C/[C@H](O[C@@H]2O[C@H](C)[C@@H](O)[C@H](N)[C@@H]2O)C[C@@H]2O[C@](O)(C[C@@H](O)C[C@@H](O)[C@H](O)CC[C@@H](O)C[C@@H](O)CC(=O)O[C@H]1C)C[C@H](O)[C@H]2C(=O)O [AMPHOTERICIN B]
Leishmania major [4]
  inhibition of growth at 100 µM: 79.8%
Leishmania major [5]
  inhibition of growth at 10 µM: 76.3%
Leishmania major [6]
  inhibition of growth at 1 µM: 74.8%
Leishmania major [7]
  inhibition of growth at 0.1 µM: 69.8%

## O=c1oc2ccccc2c(O)c1C(c1ccoc1)N1CCOCC1 (stereo unspecified)
Leishmania donovani
  IC50: 14.7 µM

## CN1CCN(C(c2c(O)c3ccccc3oc2=O)c2c[nH]c3ccccc23)CC1 (stereo unspecified)
Leishmania donovani
  IC50: 13.1 µM

## COc1nc(OC)nc(N(CC(=O)[C@@H](N)C(C)C)CC(=O)[C@@H](N)C(C)C)n1
Leishmania aethiopica [8]
  IC50: 1.4 µM
Leishmania aethiopica [9]
  IC50: 0.22 µM

## O=[N+]([O-])c1ccc(-c2nnc(NCCCO)s2)s1
Leishmania major [3]
  IC50: 3 µM

## O=C(CSc1nnc(-c2ccc([N+](=O)[O-])o2)s1)NCc1ccccc1
Leishmania major [1]
  IC50: 46.7 µM
[2]
  IC50 at 24 h: 86.9 µM

## CCCNC(=O)CSc1nnc(-c2ccc([N+](=O)[O-])o2)s1
Leishmania major [1]
  IC50: 19.5 µM
[2]
  IC50 at 24 h: 59.7 µM
